The values below come from ChEMBL document CHEMBL4819133, “Exploiting the HSP60/10 chaperonin system as a chemotherapeutic target for colorectal cancer” (Bioorg Med Chem, 2021).

The term CC50 denotes the concentration at which the toxic effect on the cells reaches its halfway point. What is called IC50 is the concentration needed to halve the response being measured. One may read the EC50 as the concentration giving half of the maximal effect.

Data set [1] in a line: (§1) Cytotoxicity against human HEK293 cells assessed as reduction in cell viability measured after 48 hrs by AlamarBlue assay. In kind it is cell-based. The note with it: HEK293 cells. (Alamar Blue is a resazurin reagent that responds to reducing activity.)
In data set [2] the target is T1, E. coli GroEL/ES (Escherichia coli, UniProt P0A6F5). Briefly: Inhibition of Escherichia coli GroEL/ES-mediated refolding of the denatured rhodanese. The data set is classed as protein-complex assay.
The subject of data set [3] is DLD-1. The data set can be described thus: Cytotoxicity against human DLD-1 cells assessed as reduction in cell viability measured after 48 hrs by AlamarBlue assay. The data set is classed as functional, cell-based. To be noted: DLD-1, 48 h.
Data set [4] has as its system HT-29. Briefly: Cytotoxicity against human HT-29 cells assessed as reduction in cell viability measured after 48 hrs by AlamarBlue assay. In kind it is functional, cell-based. The note with it: HT-29, 48 h.
Data set [5] addresses HSP60/HSP10 (Homo sapiens, UniProt P10809). Briefly: Inhibition of human mitochondrial HSP60/10-mediated refolding of the denatured malate dehydrogenase. The data set is classed as mitochondria, Mitochondria.
Data set [6] can be described thus: Inhibition of refolded MDH (unknown origin)-mediated oxidation of NADPH in presence of mesoxalic acid treated with compound after refolding of the denatured enzyme. Also on record: species or system Homo sapiens.
The subject of data set [7] is FHC. The data set can be described thus: Cytotoxicity against human FHC cells assessed as reduction in cell viability measured after 48 hrs by AlamarBlue assay. The data set is classed as cell-based.
The nature of data set [8]: Cytotoxicity against human THLE-3 cells assessed as reduction in cell viability measured after 48 hrs by AlamarBlue assay. The data set is classed as cell-based. To be noted: for CC50 at 48 h: THLE-3 cells.
Data set [9] addresses T1, E. coli GroEL/ES. Briefly: Inhibition of Escherichia coli GroEL/ES-mediated refolding of the denatured malate dehydrogenase. In kind it is protein-complex assay.
The target of data set [10] is T2, Thiosulfate sulfurtransferase (Homo sapiens, UniProt Q16762).
T2 sequence (Q16762 whole entry): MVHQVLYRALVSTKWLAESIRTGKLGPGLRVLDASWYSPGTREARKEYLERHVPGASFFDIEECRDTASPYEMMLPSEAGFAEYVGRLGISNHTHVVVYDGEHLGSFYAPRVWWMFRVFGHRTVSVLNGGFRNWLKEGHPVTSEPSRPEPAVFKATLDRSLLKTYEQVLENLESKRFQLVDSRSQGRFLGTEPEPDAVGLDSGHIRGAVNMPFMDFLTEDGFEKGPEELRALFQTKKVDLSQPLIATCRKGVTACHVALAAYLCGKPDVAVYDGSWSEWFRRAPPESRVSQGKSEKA
The data set can be described thus: Inhibition of refolded Rhodanese (unknown origin)-mediated conversion of cyanide to thiocyanate treated with compound after refolding of the denatured enzyme.

For data set [11], the system named is HCT-116. The data set can be described thus: Cytotoxicity against human HCT-116 cells assessed as reduction in cell viability measured after 48 hrs by AlamarBlue assay. The data set is classed as functional, cell-based. The note with it: HCT-116, 48 h.
A short description of data set [12]: Cytotoxicity against human FHs74Int cells assessed as reduction in cell viability measured after 48 hrs by AlamarBlue assay. The data set is classed as cell-based.
The subject of data set [13] is HEK293. The description is as §1. In kind it is cell-based. The note with it: hek293, 48 h.

T1 sequence (P0A6F5 whole entry, looked up): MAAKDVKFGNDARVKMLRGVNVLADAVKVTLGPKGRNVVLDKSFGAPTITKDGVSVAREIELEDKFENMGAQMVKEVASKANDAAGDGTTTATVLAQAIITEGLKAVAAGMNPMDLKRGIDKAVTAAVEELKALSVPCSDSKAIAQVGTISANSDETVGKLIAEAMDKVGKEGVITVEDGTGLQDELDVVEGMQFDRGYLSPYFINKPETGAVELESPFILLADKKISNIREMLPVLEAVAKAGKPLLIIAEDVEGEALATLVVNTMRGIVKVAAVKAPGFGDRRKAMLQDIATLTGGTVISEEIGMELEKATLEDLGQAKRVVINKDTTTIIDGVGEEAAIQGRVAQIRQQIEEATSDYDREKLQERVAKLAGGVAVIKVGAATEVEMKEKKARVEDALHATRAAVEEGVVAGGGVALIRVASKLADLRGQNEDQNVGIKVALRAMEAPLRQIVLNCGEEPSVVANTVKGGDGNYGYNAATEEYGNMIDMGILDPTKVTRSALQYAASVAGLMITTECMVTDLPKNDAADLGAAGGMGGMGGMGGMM
HSP60/HSP10, sequence (P10809 whole entry): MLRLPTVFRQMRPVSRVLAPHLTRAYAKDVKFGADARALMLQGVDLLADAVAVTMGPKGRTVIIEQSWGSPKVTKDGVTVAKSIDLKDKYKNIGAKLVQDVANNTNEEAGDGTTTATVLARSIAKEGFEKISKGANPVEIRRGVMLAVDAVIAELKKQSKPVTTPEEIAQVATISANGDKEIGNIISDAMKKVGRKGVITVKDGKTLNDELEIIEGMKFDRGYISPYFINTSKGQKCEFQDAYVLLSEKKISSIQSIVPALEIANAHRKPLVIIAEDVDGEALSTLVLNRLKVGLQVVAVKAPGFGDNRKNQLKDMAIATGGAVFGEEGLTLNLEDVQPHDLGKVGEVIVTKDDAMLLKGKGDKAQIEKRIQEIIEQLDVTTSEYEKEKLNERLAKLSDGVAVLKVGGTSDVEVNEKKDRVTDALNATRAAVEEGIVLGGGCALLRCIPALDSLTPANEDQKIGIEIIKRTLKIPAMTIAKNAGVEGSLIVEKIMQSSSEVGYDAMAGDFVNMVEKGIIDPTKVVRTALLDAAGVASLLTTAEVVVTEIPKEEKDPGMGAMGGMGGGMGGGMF
HSP60/HSP10, sequence (P61604 whole entry, further chain): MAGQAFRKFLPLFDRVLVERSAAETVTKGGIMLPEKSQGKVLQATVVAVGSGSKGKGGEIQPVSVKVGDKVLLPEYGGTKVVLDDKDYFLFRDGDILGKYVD

Consider `O=S(=O)(Nc1ccc(-c2nc3cc(NS(=O)(=O)c4ccc(C(F)(F)F)cc4)ccc3o2)cc1)c1ccc(C(F)(F)F)cc1`, for which the CC50 at 48 h was determined as 29 µM in data set [1] and 21 µM in data set [8]. The IC50 is 34 µM in [2]; 57 µM in data set [5]; above 62.5 µM in data set [6]; 19 µM in [9]; above 100 µM in [10]. In addition, the EC50 came out at 10 µM in data set [3], 13 µM in [4] and 15 µM in data set [11]. For the same compound, the CC50 in data set [7] is 57 µM; in data set [12] it was 69 µM.

Take `COc1ccc(S(=O)(=O)Nc2ccc3oc(-c4ccc(NS(=O)(=O)c5cc(Br)ccc5OC)cc4)nc3c2)cc1`: the cytotoxic concentration (CC50) in data set [13] is 18 µM; in data set [7], above 100 µM; in data set [8] (thle-3, 48 h), 16 µM; in data set [12] it was above 100 µM. The IC50 in data set [2] was 22 µM; in [5], 67 µM; in data set [6], above 62.5 µM; in data set [9] it was 27 µM; in data set [10], above 100 µM. Further, the 50% effective concentration (EC50) came to 15 µM in data set [3], 14 µM in data set [4] and 12 µM in data set [11].

Regarding `COc1c(Br)cccc1C(=O)Nc1ccc(Sc2nc3ccccc3s2)cc1`, the CC50 at 48 h in [1] and in data set [8] was above 100 µM each time. The EC50 in data set [3] was found to be 40 µM; in data set [4] it was 30 µM; in data set [11], 31 µM. Moreover, the IC50 in data set [6] was above 62.5 µM.

For the compound `O=S(=O)(Nc1ccc(-c2nc3cc(NS(=O)(=O)c4ccccc4)ccc3o2)cc1)c1ccccc1`, the CC50 at 48 h is 25 µM in [1] and 23 µM in data set [8]. For the same compound, the IC50 is 18 µM in data set [2], 86 µM in data set [5], above 62.5 µM in data set [6] and above 100 µM in data set [10]. Further, the EC50 in [3] came out at 16 µM; in [4], 16 µM; in [11], 13 µM. Also, the CC50 in [7] is 30 µM; in data set [12], above 100 µM.

For the compound `O=C(Nc1ccc(Sc2nc3ccccc3s2)cc1)c1cccc(Br)c1O`, the cytotoxic concentration (CC50) at 48 h in data set [1] was 33 µM; in data set [8], 12 µM. The IC50 is 37 µM in [2], above 100 µM in [5], above 62.5 µM in data set [6] and 42 µM in data set [9]. Further, the EC50 in data set [3] amounted to 12 µM; in [4], 9.3 µM; in data set [11], 8.9 µM. Also, the CC50 was 59 µM in data set [7] and 75 µM in data set [12].

With `O=S(=O)(Nc1ccc(-c2nc3cc(NS(=O)(=O)c4ccc(F)cc4)ccc3o2)cc1)c1ccc(F)cc1`, the values for the CC50 at 48 h in [1] and in data set [8] were 31 µM and 22 µM, respectively. In addition, the IC50 is 19 µM in data set [2], 63 µM in data set [5], above 62.5 µM in data set [6] and above 100 µM in [10]. Also, the EC50 is 18 µM in data set [3], 17 µM in data set [4] and 12 µM in [11]. The CC50 was determined as 27 µM in [7] and 63 µM in [12].

`O=S(=O)(Nc1ccc(-c2nc3cc(NS(=O)(=O)c4cccc(C(F)(F)F)c4)ccc3o2)cc1)c1cccc(C(F)(F)F)c1`: the CC50 at 48 h was found to be 23 µM in data set [1] and 24 µM in data set [8]. Further, the IC50 is 54 µM in data set [5], above 62.5 µM in data set [6] and 14 µM in data set [9]. The values for the CC50 in data set [7] and in data set [12] were 56 µM and above 100 µM, respectively. Also, the EC50 in [11] worked out at 14 µM.

In the case of `Nc1ccc(S(=O)(=O)Nc2ccc(-c3nc4cc(NS(=O)(=O)c5ccc(N)cc5)ccc4o3)cc2)cc1`, the CC50 at 48 h in data set [1] turned out to be 63 µM; in data set [8] it was 39 µM. For the same compound, the IC50 was 3.1 µM in [2], 44 µM in data set [5], above 62.5 µM in [6] and above 100 µM in [10]. The values for the EC50 in data set [3], in [4] and in [11] were 47 µM, 24 µM and 17 µM, respectively. The CC50 in [7] stood at 65 µM; in data set [12], 53 µM.

For the compound `O=S(=O)(Nc1ccc(-c2nc3cc(NS(=O)(=O)c4cccc5ccccc45)ccc3o2)cc1)c1cccc2ccccc12`, the CC50 at 48 h in data set [1] is above 100 µM; in data set [8], 49 µM. Besides, the 50% inhibitory concentration (IC50) in data set [2] is 35 µM; in data set [6], above 62.5 µM; in [9], 43 µM; in data set [10], above 100 µM. For the same compound, the EC50 in [3] amounted to 34 µM; in data set [4], 31 µM; in data set [11] it was 20 µM. Moreover, in data set [12], the CC50 is 52 µM.

With `O=C(Nc1ccc(Sc2nc3ccccc3s2)cc1)c1cc(Br)cc(Br)c1O`, the CC50 at 48 h in data set [1] is 69 µM; in data set [8] it was 19 µM. The IC50 in data set [2] stood at 2.2 µM; in [5], 5.9 µM; in [6] it was 6.6 µM; in data set [9], 3.2 µM. In addition, the EC50 came out at 20 µM in [3], 21 µM in data set [4] and 19 µM in data set [11]. Moreover, the CC50 in [7] turned out to be 74 µM; in data set [12], 75 µM.

With `COc1ccccc1S(=O)(=O)Nc1ccc(-c2nc3cc(NS(=O)(=O)c4ccccc4OC)ccc3o2)cc1`, the CC50 at 48 h in [1] is 28 µM; in [8], 48 µM. Further, the IC50 is 33 µM in [2]; 87 µM in data set [5]; above 62.5 µM in data set [6]; 43 µM in data set [9]; above 100 µM in [10]. The EC50 came out at 6.6 µM in [3], 16 µM in data set [4] and 9.2 µM in data set [11]. In addition, the CC50 was 74 µM in data set [7] and 81 µM in data set [12].

For the compound `O=S(=O)(Nc1ccc(-c2nc3cc(NS(=O)(=O)c4ccccc4Cl)ccc3o2)cc1)c1ccccc1Cl`, the CC50 at 48 h in [1] is 46 µM; in [8] it was 25 µM. The half-maximal inhibitory concentration (IC50) was 43 µM in [2], above 62.5 µM in data set [6], 40 µM in data set [9] and above 100 µM in [10]. Moreover, the values for the EC50 in [3], in data set [4] and in data set [11] were 17 µM, 15 µM and 12 µM, respectively. For the same compound, the CC50 in data set [7] worked out at 45 µM; in data set [12] it was 38 µM.

In the case of `O=S(=O)(Nc1ccc(-c2nc3cc(NS(=O)(=O)c4ccc(Cl)s4)ccc3o2)cc1)c1ccc(Cl)s1`, the CC50 at 48 h in data set [1] is 41 µM; in data set [8] it was 48 µM. Moreover, the EC50 was found to be 33 µM in data set [3], 33 µM in data set [4] and 15 µM in [11]. In addition, the results for the IC50 in [5], in data set [6] and in data set [9] were 6.5 µM, 57 µM and 2.8 µM, respectively. The CC50 was 43 µM in data set [7] and 65 µM in data set [12].

For `O=S(=O)(Nc1ccc(-c2nc3cc(NS(=O)(=O)c4ccc(Br)cc4)ccc3o2)cc1)c1ccc(Br)cc1`, the CC50 at 48 h in data set [1] is 22 µM; in [8], 18 µM. In addition, the IC50 in data set [2] was 34 µM; in [6], above 62.5 µM; in data set [9], 16 µM; in data set [10], above 100 µM. The 50% effective concentration (EC50) in data set [4] stood at 17 µM; in [11], 11 µM. In addition, the CC50 in [12] is above 100 µM.

As to `O=S(=O)(Nc1ccc(-c2nc3cc(NS(=O)(=O)c4ccc(Cl)s4)ccc3o2)cc1)c1ccc(Cl)c(C(F)(F)F)c1`, the CC50 at 48 h in data set [1] is 34 µM; in data set [8], 21 µM. For the same compound, the IC50 in data set [2] is 8.3 µM; in data set [5], 6.7 µM; in data set [6] it was above 62.5 µM; in data set [9] it was 2.8 µM. Also, the EC50 in [4] turned out to be 21 µM; in data set [11], 17 µM. Also, the CC50 in data set [7] came out at 63 µM; in [12] it was 56 µM.

Take `Cc1ccc(S(=O)(=O)Nc2ccc(-c3nc4ccc(NS(=O)(=O)c5ccc(C)cc5)cc4[nH]3)cc2)cc1`: the cytotoxic concentration (CC50) at 48 h in data set [1] was 38 µM; in data set [8], 22 µM. The IC50 in data set [2] is 46 µM; in data set [5], 79 µM; in data set [6], above 62.5 µM; in data set [9], 24 µM; in [10], above 100 µM. Also, the values for the EC50 in data set [3], in [4] and in data set [11] were 25 µM, 21 µM and 14 µM, respectively. Besides, the CC50 is above 100 µM in [7] and 96 µM in data set [12].

On to `COc1ccc(S(=O)(=O)Nc2ccc(-c3nc4cc(NS(=O)(=O)c5ccc(OC)cc5)ccc4o3)cc2)cc1`, for which the values for the CC50 at 48 h in data set [1] and in [8] were 48 µM and 60 µM, respectively. For the same compound, the IC50 is 56 µM in data set [2], above 62.5 µM in [6], 30 µM in data set [9] and above 100 µM in [10]. The EC50 in data set [3] amounted to 28 µM; in data set [4] it was 40 µM; in [11], 12 µM. Further, the values for the CC50 in [7] and in data set [12] were 57 µM and 40 µM, respectively.
